Measured values: article PMC10269775, “Penicillin-Binding Protein Occupancy Dataset for 18 β-Lactams and 4 β-Lactamase Inhibitors in Neisseria gonorrhoeae” (Microbiology Spectrum, 2023)
Converted amounts (≈) assume the structure as drawn. Where two headings read alike, the source gives them in different places.

Columns and labels:
[1] = system: N. gonorrhoeae ATCC 49226; assay: MIC, CLSI broth microdilution; type: cell-based, Neisseria gonorrhoeae; settings: Neisseria gonorrhoeae
N. gonorrhoeae = settings: single 2-g dose; isolates with an MIC above 0.5 mg/L; cited from earlier work
PBP1 [2] = molecular target: T1, PBP1 (Neisseria gonorrhoeae, UniProt O05131, A375T/F666S); assay: PBP-binding assay (Bocillin FL) in isolated membrane preparations; set-up: species or system Neisseria gonorrhoeae ATCC 49226
T1 construct: endogenous in cells; host or cells: N. gonorrhoeae ATCC 49226, isolated membrane preparation
Text: (§1) Bacterial membranes were collected by ultracentrifugation.

PBP1 [3] = molecular target: T2, PBP1 (Neisseria gonorrhoeae, UniProt O05131); assay: as above; settings: strain ATCC 19424
T2 construct: endogenous in cells; host or cells: N. gonorrhoeae ATCC 19424, isolated membrane preparation
Text: as §1

[4] = system: N. gonorrhoeae ATCC 19424; assay: MIC, CLSI broth microdilution; type: cell-based; settings: Neisseria gonorrhoeae
PBP3 [5] = molecular target: T3, PBP3 (Neisseria gonorrhoeae, UniProt Q5FAB9); settings: read-out: IC50 PBP3; strain ATCC 19424; membrane preparation, 30 min drug then Bocillin FL
T3 sequence (Q5FAB9 22-469): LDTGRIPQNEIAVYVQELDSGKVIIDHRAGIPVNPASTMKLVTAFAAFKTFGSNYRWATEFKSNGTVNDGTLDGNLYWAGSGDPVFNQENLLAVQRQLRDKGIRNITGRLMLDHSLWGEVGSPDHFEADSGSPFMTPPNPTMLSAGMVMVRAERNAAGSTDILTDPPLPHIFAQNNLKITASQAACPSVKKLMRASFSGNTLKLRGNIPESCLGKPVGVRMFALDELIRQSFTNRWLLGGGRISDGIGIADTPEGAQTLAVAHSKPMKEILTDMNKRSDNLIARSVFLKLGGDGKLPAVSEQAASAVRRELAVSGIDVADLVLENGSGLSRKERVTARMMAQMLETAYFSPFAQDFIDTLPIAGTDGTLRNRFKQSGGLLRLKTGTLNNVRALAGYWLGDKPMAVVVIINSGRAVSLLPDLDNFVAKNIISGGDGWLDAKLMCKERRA

PBP2 [6] = molecular target: T4, PBP2 (Neisseria gonorrhoeae, UniProt P08149, A510V/A516G/A574V/F504L/H541N/I556V/I566V/K555Q/P552V); assay: biochemical; type: binding, Neisseria gonorrhoeae ATCC 49226
T4 construct: endogenous in cells; host or cells: N. gonorrhoeae ATCC 49226, isolated membrane preparation

PBP2 [7] = molecular target: T5, PBP2 (Neisseria gonorrhoeae, UniProt P08149, H541N); assay: PBP-binding assay (Bocillin FL) in isolated membrane preparations; set-up: species or system Neisseria gonorrhoeae ATCC 19424
T5 construct: endogenous in cells; host or cells: N. gonorrhoeae ATCC 19424, isolated membrane preparation

PBP1, PBP2 and PBP3 [8] = molecular target: T6, PBP1, PBP2 and PBP3 (Neisseria gonorrhoeae, UniProt Q5FAB9); type: binding, Neisseria gonorrhoeae ATCC 49226; settings: read-out: min. IC50 (minimum observed IC50 value); strain ATCC 49226
T6 sequence (Q5FAB9 22-469): T3 sequence (Q5FAB9 22-469)

PBP3 [9] = molecular target: T3, PBP3; settings: read-out: IC50 PBP3; strain ATCC 49226; membrane preparation, 30 min drug then Bocillin FL
PBP1, PBP2 and PBP3 [10] = molecular target: T6, PBP1, PBP2 and PBP3; type: binding, Neisseria gonorrhoeae ATCC 19424; settings: read-out: min. IC50 (minimum observed IC50 value); strain ATCC 19424
PBP1, PBP2 and PBP3 [11] = type: binding, Neisseria gonorrhoeae ATCC 19424; settings: strain ATCC 19424
PBP1, PBP2 and PBP3 [12] = type: binding, Neisseria gonorrhoeae ATCC 49226; settings: strain ATCC 49226
PBP1, PBP2 and PBP3 [13] = molecular target: PBP1, PBP2 and PBP3 (Neisseria gonorrhoeae, UniProt P08149, H541N); type: binding, Neisseria gonorrhoeae ATCC 19424; settings: read-out: min. IC50 (minimum observed IC50 value); strain ATCC 19424
[14] = ATCC49226, strain ATCC 49226, read-out: MIC (Table S1)
[15] = IC50 PBP1, strain ATCC 49226, membrane preparation, 30 min drug then Bocillin FL
[16] = membrane preparation, 30 min drug then Bocillin FL, read-out: IC50 PBP1 (converted)
[17] = ATCC19424, strain ATCC 19424, read-out: MIC
[18] = ATCC19424, strain ATCC 19424, read-out: MIC (Table S1)
[19] = ATCC49226, read-out: MIC (Table S1)
[20] = IC50 PBP2 (Table S1), strain ATCC 49226
[21] = IC50 PBP2, strain ATCC 49226, membrane preparation, 30 min drug then Bocillin FL
[22] = IC50 PBP2 (Table S1), strain ATCC 19424
[23] = IC50 PBP2, strain ATCC 19424, membrane preparation, 30 min drug then Bocillin FL
[24] = IC50 PBP1 (Table S1), strain ATCC 49226
[25] = ATCC49226, strain ATCC 49226, read-out: MIC
[26] = ATCC19424, read-out: MIC (Table S1)

SMILES | MIC ([1]; ATCC49226) [µg/mL] | MIC [1, 14] [µg/mL] | IC50 (PBP1 [2]; [15]) [µM] | IC50 (PBP1 [3]; [16]) [µM] | MIC [4, 17] [µg/mL] | MIC [4, 18] [µg/mL] | IC50 (PBP3 [5]) [µM] | MIC [1, 19] [µg/mL] | IC50 (PBP2 [6]; [20]) [µM] | IC50 (PBP2 [6]; [21]) [µM] | IC50 (PBP2 [7]; [22]) [µM] | IC50 (PBP2 [7]; [23]) [µM] | IC50 (PBP1 [2]; [24]) [µM] | IC50 (PBP1, PBP2 and PBP3 [8]) [µM] | IC50 (PBP3 [9]) [µM] | IC50 (PBP1, PBP2 and PBP3 [10]) [µM] | MIC [1, 25] [µg/mL] | min. IC50 (minimum observed IC50 value) (PBP1, PBP2 and PBP3 [11]) [µg/mL] | MIC ([4]; ATCC19424) [µg/mL] | MIC [4, 26] [µg/mL] | other results
C[C@H]1[C@H](NC(=O)/C(=N\OC(C)(C)C(=O)O)c2csc(N)n2)C(=O)N1S(=O)(=O)O [ATM, aztreonam] | 0.125 (≈ 0.287 µM) | 0.25 (≈ 0.574 µM) | > 4.59 | > 4.59 | 0.032 (≈ 0.0735 µM) | 0.032 (≈ 0.0735 µM) |  |  |  |  |  |  |  |  |  |  |  |  |  |  | cure rate (N. gonorrhoeae): 50%
NC(=O)[C@@H]1CC[C@@H]2CN1C(=O)N2OS(=O)(=O)O [AVI, avibactam] | > 256 |  | > 965 | > 1930 |  | 128 (≈ 483 µM) | 8.78 | 512 (≈ 1930 µM) | > 1930 | > 965 | 442 | 441 | > 1930 | 20.4 | 20.4 | 8.78 |  |  |  |  | 
C[C@@H](O)[C@H]1C(=O)N2C(C(=O)O)=C(S[C@@H]3CN[C@H](CNS(N)(=O)=O)C3)[C@H](C)[C@H]12 [DOR, doripenem] |  | 0.032 (≈ 0.0761 µM) | 2.57 | 2.69 | 0.004 (≈ 0.00951 µM) | 0.004 (≈ 0.00951 µM) |  |  | 0.214 | 0.19 |  | 0.143 |  |  |  |  | 0.032 (≈ 0.0761 µM) | 0.01 |  |  | 
CC1(C)S[C@@H]2[C@H](NC(=O)Cc3ccccc3)C(=O)N2[C@H]1C(=O)O [PenG, penicillin G] |  | 0.125 (≈ 0.374 µM) | > 5.98 | 5.65 | 0.064 (≈ 0.191 µM) | 0.063 (≈ 0.188 µM) | 0.0598 |  |  | 0.778 |  | 0.15 |  | 0.0299 | 0.0299 |  | 0.125 (≈ 0.374 µM) | 0.02 |  |  | 
O=C(NC1CCNCC1)[C@@H]1CC[C@@H]2CN1C(=O)N2OS(=O)(=O)O [REL, relebactam] | > 256 |  | > 735 | > 1470 |  |  | 3.65 | 512 (≈ 1470 µM) | > 1470 | > 735 | 1470 | > 1470 | > 1470 | 3.76 | 3.76 | 3.65 |  |  | > 256 | 512 (≈ 1470 µM) | 
CC1(C)[C@H](C(=O)O)N2C(=O)C[C@H]2S1(=O)=O [SUL, sulbactam] | 4 (≈ 17.1 µM) |  | 870 | 236 |  |  | 39.9 | 4 (≈ 17.1 µM) |  | 25.8 |  | 5.06 | 871 |  | 27.3 |  |  |  | 0.25 (≈ 1.07 µM) | 0.25 (≈ 1.07 µM) | IC50 (PBP1 [3]; read-out: IC50 PBP1 (Table S1) (converted)): 238 µM; min. IC50 (minimum observed IC50 value) (PBP1, PBP2 and PBP3 [12]): 6.02 µg/mL; IC50 (PBP1, PBP2 and PBP3 [13]): 5.06 µM
